# From patent US20190167576A1, “USE OF HIGH AFFINITY MONOCLONAL ANTIBODY PRODUCT BINDERS TO INCREASE THE DURATION OF ACTION OF THERAPEUTIC MONOCLONAL ANTIBODY PRODUCTS IN A BIOLOGIC TISSUE” (priority 2016, published 2019)
# Target: monoclonal antibody products
# Settings: binding to monoclonal antibody products; read-out: dissociation constant (KD)
smiles,measurement,value
"Nc1cccc(Nc2nc(NCCO)nc(NCC(O)CNc3nc(NCCO)nc(Nc4cccc(N)c4)n3)n2)c1 [Compound 1, 1,3-bis({4-[(3-aminophenyl)amino]-6-[(2-hydroxyethyl)amino]-1,3,5-triazin-2-yl}amnio)propan-2-ol]",Kd,< 1 µM
